SMILES strings stand for the structures. Calls of active or inactive are those of the source. The rule behind the calls is not given here.

In experiment [1] the target is Hypoxia-inducible factor 1-alpha (Homo sapiens) (UniProt Q16665). The experiment is described as follows: potency against HIF reporters across cell lines – luminescence, panel, selectivity assay for HIF-2a inhibitor project, dose response (AID 651581). Conditions: human cell HIF reporter, HIF-1a.
The target in experiment [2] is Endothelial PAS domain-containing protein 1 (Homo sapiens) (UniProt Q99814). The experiment is described as above. Conditions: human cell HIF reporter.

Chain of Hypoxia-inducible factor 1-alpha (Homo sapiens) (Q16665 whole entry, looked up, the tested form may be a part): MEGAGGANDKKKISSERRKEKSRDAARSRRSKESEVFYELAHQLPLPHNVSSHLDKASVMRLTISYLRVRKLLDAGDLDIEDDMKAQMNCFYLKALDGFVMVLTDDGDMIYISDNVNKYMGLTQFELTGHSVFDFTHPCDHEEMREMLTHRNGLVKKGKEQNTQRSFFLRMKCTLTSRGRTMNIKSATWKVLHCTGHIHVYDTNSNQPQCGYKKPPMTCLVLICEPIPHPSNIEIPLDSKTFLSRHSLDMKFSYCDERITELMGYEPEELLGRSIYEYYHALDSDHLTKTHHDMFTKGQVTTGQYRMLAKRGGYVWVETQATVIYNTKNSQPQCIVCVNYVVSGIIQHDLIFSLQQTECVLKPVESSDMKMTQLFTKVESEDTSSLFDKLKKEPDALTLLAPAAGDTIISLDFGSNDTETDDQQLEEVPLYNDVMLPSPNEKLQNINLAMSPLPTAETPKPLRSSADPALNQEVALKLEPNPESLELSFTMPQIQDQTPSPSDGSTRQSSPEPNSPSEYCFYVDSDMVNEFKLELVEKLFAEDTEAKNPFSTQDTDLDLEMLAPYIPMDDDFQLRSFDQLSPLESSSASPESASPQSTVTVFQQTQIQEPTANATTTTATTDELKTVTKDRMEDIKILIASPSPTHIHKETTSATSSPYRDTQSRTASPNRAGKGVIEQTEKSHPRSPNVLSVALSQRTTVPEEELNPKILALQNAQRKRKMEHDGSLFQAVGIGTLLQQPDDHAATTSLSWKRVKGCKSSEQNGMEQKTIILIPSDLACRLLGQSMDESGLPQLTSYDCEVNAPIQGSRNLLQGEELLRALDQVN

Turning to `O=S(=O)(Nc1cccc2cccnc12)c1ccccc1`, the 50% inhibitory concentration (IC50) in experiment [1] (run 1) was above 99 µM; in experiment [1] (run 2) it was above 99 µM; in experiment [2] (HIF-2a PANC, mean of runs) it was > 99 µM (inactive); in experiment [2] (HIF-2a PANC, run 1) it was above 99 µM; in experiment [2] (HIF-2a PANC, run 2), above 99 µM; in experiment [2] (HIF-2a, mean of runs) it was 3.37 µM. For the same compound, the IC50 worked out at 3.54 µM in experiment [2] (HIF-2a, run 1) and 3.2 µM in experiment [2] (HIF-2a, run 2).

`CSc1ccc(/C=N/Nc2cccc(C(=O)O)c2)cc1`: the IC50 in experiment [1] (run 1) is above 99 µM; in experiment [1] (run 2) it was above 99 µM; in experiment [2] (HIF-2a PANC, mean of runs), > 99 µM (inactive); in experiment [2] (HIF-2a PANC, run 1) it was above 99 µM; in experiment [2] (HIF-2a PANC, run 2), above 99 µM; in experiment [2] (HIF-2a, mean of runs), 5.33 µM. The IC50 amounted to 5.25 µM in experiment [2] (HIF-2a, run 1) and 5.4 µM in experiment [2] (HIF-2a, run 2).

For the compound `N#Cc1ccccc1COc1ccc(/C=C/C(=O)O)cc1`, the IC50 was 1.34 µM in experiment [1] (mean of runs); 1.56 µM in experiment [1] (run 1); 1.12 µM in experiment [1] (run 2); 0.92 µM in experiment [2] (HIF-2a PANC, mean of runs); 1.53 µM in experiment [2] (HIF-2a PANC, run 1); 0.311 µM in experiment [2] (HIF-2a PANC, run 2). In addition, the IC50 in experiment [2] (HIF-2a, mean of runs) was 0.391 µM; in experiment [2] (HIF-2a, run 1), 0.37 µM; in experiment [2] (HIF-2a, run 2) it was 0.412 µM.

For the compound `Cc1cc(C(=O)Nc2cccc(C(=O)O)c2)oc1C`, the IC50 in experiment [1] (run 1) is 41.9 µM; in experiment [1] (run 2) it was above 99 µM; in experiment [2] (HIF-2a PANC, mean of runs), > 99 µM (inactive); in experiment [2] (HIF-2a PANC, run 1) it was above 99 µM; in experiment [2] (HIF-2a PANC, run 2), above 99 µM; in experiment [2] (HIF-2a, mean of runs), 6.46 µM. For the same compound, the IC50 in experiment [2] (HIF-2a, run 1) came out at 6.81 µM; in experiment [2] (HIF-2a, run 2), 6.12 µM.

`FC(F)(F)c1cnc(NNC(=S)Nc2ccccc2)c(Cl)c1`: the IC50 in experiment [1] (mean of runs) was 28.9 µM; in experiment [1] (run 1), 13.9 µM; in experiment [1] (run 2), 44 µM; in experiment [2] (HIF-2a PANC, mean of runs), 2.3 µM; in experiment [2] (HIF-2a PANC, run 1), 1.23 µM; in experiment [2] (HIF-2a PANC, run 2) it was 3.36 µM. Besides, the IC50 is 7.78 µM in experiment [2] (HIF-2a, mean of runs); 8.41 µM in experiment [2] (HIF-2a, run 1); 7.15 µM in experiment [2] (HIF-2a, run 2).

For `N#Cc1c(NC(=O)CCCC(=O)O)sc2c1CCCCC2`, the IC50 in experiment [1] (run 1) is above 99 µM; in experiment [1] (run 2), above 99 µM; in experiment [2] (HIF-2a PANC, mean of runs), 0.417 µM; in experiment [2] (HIF-2a PANC, run 1) it was 0.379 µM; in experiment [2] (HIF-2a PANC, run 2), 0.455 µM; in experiment [2] (HIF-2a, run 1), 51.8 µM. In experiment [2] (HIF-2a, run 2), this compound showed an IC50 below 0.19 µM.

Regarding `Cc1nnnn1/C(=C\c1ccccc1)C(=O)OCC(=O)Nc1cccc(S(=O)(=O)N(C)C)c1`, the IC50 result in experiment [1] (mean of runs) was “inactive”. In addition, the IC50 is 13.5 µM in experiment [1] (run 1); 18.5 µM in experiment [1] (run 2); above 99 µM in experiment [2] (HIF-2a PANC, run 1); 24.2 µM in experiment [2] (HIF-2a PANC, run 2); 8.61 µM in experiment [2] (HIF-2a, mean of runs); 8.32 µM in experiment [2] (HIF-2a, run 1). In addition, in experiment [2] (HIF-2a, run 2), the IC50 was found to be 8.9 µM.

On to `O=C(O)c1cccc(N/N=C/c2cccs2)c1`, for which the IC50 in experiment [1] (run 1) is above 99 µM; in experiment [1] (run 2), above 99 µM; in experiment [2] (HIF-2a PANC, run 1) it was above 99 µM; in experiment [2] (HIF-2a PANC, run 2) it was 45.8 µM; in experiment [2] (HIF-2a, mean of runs), 5.74 µM; in experiment [2] (HIF-2a, run 1), 5.56 µM. In experiment [2] (HIF-2a, run 2), this compound came in with an IC50 of 5.91 µM.

For `c1c2c(cc3sc(N4CCOCC4)nc13)OCCO2`, the IC50 result in experiment [1] (mean of runs) was “inactive”. The IC50 in experiment [1] (run 1) was 11.3 µM; in experiment [1] (run 2), 18 µM; in experiment [2] (HIF-2a PANC, mean of runs), 17.2 µM; in experiment [2] (HIF-2a PANC, run 1), 20 µM; in experiment [2] (HIF-2a PANC, run 2) it was 14.4 µM; in experiment [2] (HIF-2a, mean of runs), < 30 µM (inactive). Also, the IC50 in experiment [2] (HIF-2a, run 1) is below 30 µM; in experiment [2] (HIF-2a, run 2), below 30 µM.

For `CC(C)(C)c1ccc(-c2noc(CCC(=O)Nc3cccnc3)n2)cc1`, the IC50 is 64.2 µM in experiment [1] (mean of runs); 78.9 µM in experiment [1] (run 1); 49.5 µM in experiment [1] (run 2); below 0.3 µM in experiment [2] (HIF-2a PANC, mean of runs); below 1 µM in experiment [2] (HIF-2a PANC, run 1); below 0.3 µM in experiment [2] (HIF-2a PANC, run 2). In addition, the half-inhibitory concentration (IC50) was below 1 µM in experiment [2] (HIF-2a, mean of runs); below 1 µM in experiment [2] (HIF-2a, run 1); below 1 µM in experiment [2] (HIF-2a, run 2).

In the case of `Cc1ccc(C(C)C)c(OCc2ccc(-c3nnco3)cc2)c1`, the IC50 in experiment [1] (run 1) was above 99 µM; in experiment [1] (run 2) it was above 99 µM; in experiment [2] (HIF-2a PANC, mean of runs), > 99 µM (inactive); in experiment [2] (HIF-2a PANC, run 1) it was above 99 µM; in experiment [2] (HIF-2a PANC, run 2), above 99 µM; in experiment [2] (HIF-2a, mean of runs) it was 1.7 µM. Also, the IC50 in experiment [2] (HIF-2a, run 1) was determined as 1.92 µM; in experiment [2] (HIF-2a, run 2), 1.49 µM.

For the compound `C/C(=N\NC(=O)c1n[nH]c2c1CCC2)c1cccs1`, the IC50 entry is “inactive” in experiment [1] (mean of runs) and “inactive” in experiment [2] (HIF-2a PANC, mean of runs). In addition, the IC50 in experiment [1] (run 1) is 13.7 µM; in experiment [1] (run 2) it was 11.6 µM; in experiment [2] (HIF-2a PANC, run 1), 27.1 µM; in experiment [2] (HIF-2a PANC, run 2), 15.3 µM; in experiment [2] (HIF-2a, mean of runs) it was 4.55 µM; in experiment [2] (HIF-2a, run 1), 4.42 µM. Also, the IC50 in experiment [2] (HIF-2a, run 2) is 4.68 µM.

For the compound `CC(C)(C)c1ccc(-c2noc(CCC(N)=O)n2)cc1`, the IC50 in experiment [1] (run 1) is above 99 µM; in experiment [1] (run 2), above 99 µM; in experiment [2] (HIF-2a PANC, mean of runs), below 0.3 µM; in experiment [2] (HIF-2a PANC, run 1), below 1 µM; in experiment [2] (HIF-2a PANC, run 2) it was below 0.3 µM; in experiment [2] (HIF-2a, mean of runs), below 0.3 µM. The IC50 was below 0.3 µM in experiment [2] (HIF-2a, run 1) and below 0.3 µM in experiment [2] (HIF-2a, run 2).

In the case of `CCN(CC)CCCC(C)n1c2nc(=O)[nH]c(=O)c-2nc2cc(Cl)ccc21` (configuration not stated), in experiment [1] (mean of runs), the IC50 entry was “inactive”. Besides, the concentration for half-maximal inhibition (IC50) in experiment [1] (run 1) is 18.1 µM; in experiment [1] (run 2), 15.8 µM; in experiment [2] (HIF-2a PANC, mean of runs), 3.53 µM; in experiment [2] (HIF-2a PANC, run 1), 2.56 µM; in experiment [2] (HIF-2a PANC, run 2) it was 4.5 µM; in experiment [2] (HIF-2a, mean of runs), 9.02 µM. Moreover, the IC50 in experiment [2] (HIF-2a, run 1) turned out to be 8.43 µM; in experiment [2] (HIF-2a, run 2), 9.61 µM.

As for `C=CS(=O)(=O)c1sc(Cl)c(N2CCOCC2)c1[N+](=O)[O-]`, the IC50 was 47.5 µM in experiment [1] (run 1); above 99 µM in experiment [1] (run 2); above 99 µM in experiment [2] (HIF-2a PANC, run 1); 15.5 µM in experiment [2] (HIF-2a PANC, run 2); 8.96 µM in experiment [2] (HIF-2a, mean of runs); 9.47 µM in experiment [2] (HIF-2a, run 1). Moreover, the IC50 in experiment [2] (HIF-2a, run 2) amounted to 8.45 µM.

On to `Cc1cccc(NC(=S)NNc2ncc(C(F)(F)F)cc2Cl)c1`, for which the IC50 in experiment [1] (mean of runs) was 30.1 µM; in experiment [1] (run 1), 33.1 µM; in experiment [1] (run 2), 27.1 µM; in experiment [2] (HIF-2a PANC, mean of runs), 2.01 µM; in experiment [2] (HIF-2a PANC, run 1), 2.31 µM; in experiment [2] (HIF-2a PANC, run 2), 1.71 µM. The IC50 in experiment [2] (HIF-2a, mean of runs) is 8.98 µM; in experiment [2] (HIF-2a, run 1), 8.85 µM; in experiment [2] (HIF-2a, run 2), 9.11 µM.

Source of the values: PubChem BioAssay AID651581 (Sanford-Burnham Center for Chemical Genomics, 2012).
